pIC50: −log10 of the molar value. “Also recorded” adds a separate entry of the source. Read-outs that look alike come from different tables or passages of the source.
Experiments:
Breast MAXF 401 = assay: CFA, MAXF 401; format: cell-based, human; conditions: PDX/CFA
Procedure: (§1) CFA was performed by Charles River Laboratories (Freiburg, Germany) in 96-well plate format according to a modified two-layer soft agar assay. The origin of the tumor xenografts has been described (Fiebig et al. 1989, incorporated herein by reference). The list of tumors used in this study is detailed in Table 1.

[1] = tested on: AK/cSCC mouse model of chronic UVB exposure; assay: AK/cSCC mouse model of chronic UVB exposure: histopathology and IHC of epidermis; format: in vivo; conditions: for HK2 protein levels in AK areas (IHC): 5% Formula C
Procedure: The formulation ingredients for vehicle, 2.5%, and 5% Formula C ointment consisted of: 32% Gelucire44/14® (Gattefosse, Saint-Priest, France), and 68% combined Labrasol® (Gattefosse, Saint-Priest, France) with corresponding amount of Formula C (w/w). New ointments were prepared every 2 weeks. The 40% topical solution was prepared just prior to use by mixing (w/w) 60% propylene glycol (Sigma, St. Louis, MO, USA) with 40% Formula C.
Histopathological analysis and IHC was performed according to standard protocols. Primary antibodies used: rabbit anti-HK1 and rabbit anti-HK2 (C35C4 and C64G5, CST, Danvers, MA), rabbit anti cleaved caspase 3 (PP229, Biocare Medical, Concord, CA), Secondary antibody was goat anti-Rabbit IgG(H+L) (474-1506, KPL, Gaithersburg, MD). Rabbit anti-CD3 (SP7), rabbit anti-F4/80 (SB-M3072, SB-M4152, Nordic Biosite, Taby, Sweden), mouse anti-Langerin/CD207 (DDX0361, Dendritics, Lyon, France). For these three primary antibodies, a polymer system was used as a secondary antibody (KDB-10046 and KDB-10007, Nordic Biosite, Taby, Sweden). Semi-quantitative analysis was done in a blinded manner by a single experienced pathologist scoring ×40 high power fields, 7 different fields per slide.
The effect of Formula C on cell proliferation and apoptosis was tested in an AK/cSCC mouse model of chronic UVB exposure. Forty-eight SKH-1 hairless female mice were chronically exposed to UVB radiation for 16 weeks. By that time, more than 60% of the animals had developed at least one SCC lesion. Three days after the final irradiation dose, the mice were randomly assigned to 1 of 4 treatment groups (N=12 mice/group) and a 50-day treatment phase started. Treatment groups included: vehicle, 2.5% or 5% Formula C ointment applied once-daily for 50 days, or 40% Formula C topical solution applied once-daily for the first 5 days of every three-week cycle (total of three treatment cycles).

A431 cells = assay: Cellular ATP determination (CellTiter-Glo) in A431 cells; format: cell-based, human; conditions: 2-hour incubation
Procedure: Cellular ATP levels were determined using CellTiter-Glo® Luminescent Cell Viability Assay kit (Promega, Madison, WI) following 2 hours of treatment at 37° C.

Breast MAXF 574 = assay: CFA, MAXF 574; format: cell-based, human; conditions: PDX/CFA
Procedure: as §1

[2] = tested on: Leukemia (AML) LEXFAM OCI-AML2; assay: CFA, LEXFAM OCI-AML2; format: cell-based, human; conditions: Cell line/CFA
Procedure: as §1

Liver (HCC) LIXFH Hep G2 = assay: CFA, LIXFH Hep G2; format: cell-based, human; conditions: Cell line/CFA
Procedure: as §1

[3] = tested on: Leukemia (BCLL) LEXFCL MEC-1; assay: CFA, LEXFCL MEC-1; format: cell-based, human; conditions: Cell line/CFA
Procedure: as §1

Lung (SCLC) LXFS 538 = assay: CFA, LXFS 538; format: cell-based, human; conditions: PDX/CFA
Procedure: as §1

[4] = tested on: Lymphoma (Non-Hodgkin) LYXFNH HH (CTCL cell line HH); assay: CFA / 3D clonogenic assay, LYXFNH HH; format: cell-based, human; conditions: for pIC50: CTCL cell line HH
Procedure: as §1
The cell lines tested were from a large collection of patient-derived (PDX) and cell line-derived (CDX) human tumor xenografts growing subcutaneously in immunodeficient nude mice (Oncotest GmbH, a Charles River Division). The majority of the xenografts have been directly transplanted from patients and passaged in nude mice. The xenografts retain most of the characteristics of the parental patient tumors including histology and sensitivity to anti-cancer drugs, and efficacy tests in tumor-bearing nude mice largely replicate the response of the donor patient to standard anti-cancer drugs. The cell lines were from publicly available cell lines, including cell lines derived from solid tumors and hematological malignancies. In the clonogenic assay, the capacity of tumor cells for anchorage-independent growth was investigated as colony formation in soft agar in the presence and absence of test compounds. For the assay, tumor cells were harvested from in vitro culture, or tumor cell suspensions were prepared directly from human tumor xenografts growing in nude mice. The cell suspensions also contained tumor stem cells, which are believed to mediate the metastatic and infiltrative potential of a tumor. […]
Formula C was investigated for antitumor potency and tumor type selectivity ex vivo in 11 human tumor models (5 tumor cell lines, 6 xenograft-derived cell suspensions) of various histotypes. Tests were carried out using a 3D clonogenic assay in 96-well format using an image based read-out.
The clonogenic assay was carried out in a 96 well plate format using ultra low attachment plates. […] Cultures were incubated at 37° C. and 7.5% CO2 in a humidified atmosphere for 8 to 14 days and monitored closely for colony growth using an inverted microscope. […]

[5] = tested on: Lung (NSCLC, epidermoid) LXFE 690; assay: CFA, LXFE 690; format: cell-based, human; conditions: PDX/CFA
Procedure: as §1

CC/C=C\CC1C(=O)CCC1CC(=O)Oc1cccc2cccnc12 (centres unmarked) [Formula C]
pIC50 (Breast MAXF 401): 5.37
cleaved caspase-3 positive cells (IHC), apoptosis in epidermis ([1]; UVB-exposed SKH-1 mice, Day 50): induces apoptosis; also recorded: statistically significant induction of apoptosis
mitotic index in AK regions of the skin (epidermis) ([1]; UVB-exposed SKH-1 mice, Day 50, all Formula C treatment groups vs vehicle): reduces cell proliferation; also recorded: significantly reduced
epidermal thickness (histopathology) ([1]; UVB-exposed SKH-1 mice, topical treatment, data not shown): thinner epidermis
HK2 staining in epidermis (IHC) ([1]; UVB-exposed mice, 5% Formula C ointment, 50 days of treatment): decreases after 50 days; also recorded: HK2 staining levels are low
HK2 protein levels in AK areas (IHC) ([1]; UVB-exposed mice, 2 days of treatment, satellite study): dramatic decrease in HK2 protein levels
HK2 protein levels in AK areas (IHC) ([1]; UVB-exposed mice, one day of treatment, data not shown): did not show this effect
reduction of cellular ATP levels (A431 cells): ≤ 50%
pIC50 (Breast MAXF 574): 5.27
pIC50 [2]: 6.01
pIC50 (Liver (HCC) LIXFH Hep G2): 5.28
pIC50 [3]: 5.93
pIC50 (Lung (SCLC) LXFS 538): 6.79
pIC50 ([4]; clonogenic assay in soft agar, read-out: relative IC50, colony formation): 5.91
pIC50 ([4]; clonogenic assay, concentration at T/C=50%, read-out: absolute IC50, colony formation): 5.92
test concentration from which pronounced effects were observed ([4]; clonogenic assay, cell lines): ≥ 3 µM
pIC50 [5]: 5.17

Source: patent US12527782B2, “Use of hexokinase 2/mitochondria-detaching compounds for treating hexokinase-2 (HK2)-expressing cancers” (Vidac Pharma Ltd., priority 2016, dated 2026)
